Drawing on BindingDB's records for doi:10.1016/j.bmc.2012.12.010 (Duquesne University, 2013), this text covers IC50 for two compounds.

The series is described as follows: Inhibition of MDR1 (unknown origin) transfected in human SKOV3 cells assessed as growth inhibition after 48 hrs by SRB assay.

As a reminder, the IC50 is the concentration that gives 50% inhibition. As to `CCN(c1ccc(OC)cc1)c1nc(N)nc2[nH]c3ccccc3c12`, the 50% inhibitory concentration (IC50) was determined as 72 nM. In the case of `CCOc1ccc(N(C)c2nc(N)nc3[nH]c4ccccc4c23)cc1` it was 29 nM.
